Reference: patent US9353100B2, “Macrocyclic serine protease inhibitors, pharmaceutical compositions thereof, and their use for treating HCV infections” (Idenix Pharmaceuticals LLC, priority 2011, dated 2016)
pEC50, pIC50: −log10 of the molar value. Where two headings read alike, the source gives them in different places.

What was measured:
[1] = molecular target: T1, HCV NS3-NS4A protease 1a (Hepatitis C virus genotype 1a, UniProt P27958); experiment: HCV protease assay (FRET peptide), genotype 1a; type: biochemical; settings: genotype 1a protease; 60 min at 30° C.; read-out: IC50 Against HS3/4A 1a
T1 construct: HCV NS3-NS4A protease, which was produced according to the method of Taremi et al; made in house
Procedure: (§1) General procedure: Measurement of the inhibitory effect of compounds on HCV protease activity was performed using the HiLyte Fluor™ TR/QXL™ 610 FRET peptide from AnaSpec, Inc. (San Jose, Calif.) under conditions developed in-house using 2-3 nM HCV NS3-NS4A protease, which was produced according to the method of Taremi et al. (Protein Science, 1998, 7, 2143-2149). The compounds were tested at a variety of concentrations in assay buffer containing a final DMSO concentration of 5%. Reactions were allowed to proceed for 60 min at 30° C. and fluorescence measurements were recorded with a PerkinElmer Victor^3 V 1420 Multilabel Counter. The IC50 values were determined from the percent inhibition versus concentration data using a sigmoidal non-linear regression analysis based on four parameters with XLfit 4.1 software.

[2] = molecular target: T2, HCV NS3-NS4A protease 1b (Hepatitis C virus genotype 1b, UniProt Q9WMX2); experiment: HCV protease assay (FRET peptide), genotype 1b; type: biochemical
T2 construct: HCV NS3-NS4A protease, which was produced according to the method of Taremi et al; made in house
Procedure: as §1

[3] = molecular target: T3, HCV NS3-NS4A protease 2a (Hepatitis C virus genotype 2a, UniProt Q99IB8); experiment: HCV protease assay (FRET peptide), genotype 2a; type: biochemical; settings: genotype 2a protease; 60 min at 30° C.; read-out: IC50 Against HS3/4A 2a
T3 construct: HCV NS3-NS4A protease, which was produced according to the method of Taremi et al; made in house
Procedure: as §1

[4] = molecular target: T4, HCV NS3-NS4A protease 3a (Hepatitis C virus genotype 3a, UniProt Q81258); experiment: HCV protease assay (FRET peptide), genotype 3a; type: biochemical
T4 construct: HCV NS3-NS4A protease, which was produced according to the method of Taremi et al; made in house
Procedure: as §1

[5] = molecular target: T5, HCV NS3-NS4A protease 4a (Hepatitis C virus genotype 4a, UniProt O39929); experiment: HCV protease assay (FRET peptide), genotype 4a; type: biochemical; settings: genotype 4a protease; 60 min at 30° C.; read-out: IC50 Against HS3/4A 4a
T5 construct: HCV NS3-NS4A protease, which was produced according to the method of Taremi et al; made in house
Procedure: as §1

[6] = molecular target: T6, HCV NS3-NS4A protease 5a (Hepatitis C virus genotype 5a, UniProt O39928); experiment: HCV protease assay (FRET peptide), genotype 5a; type: biochemical; settings: genotype 5a protease; 60 min at 30° C.; read-out: IC50 Against HS3/4A 5a
T6 construct: HCV NS3-NS4A protease, which was produced according to the method of Taremi et al; made in house
Procedure: as §1

[7] = molecular target: T7, HCV NS3-NS4A protease 6a (Hepatitis C virus genotype 6a, UniProt O39927); experiment: HCV protease assay (FRET peptide), genotype 6a; type: biochemical; settings: genotype 6a protease; 60 min at 30° C.; read-out: IC50 Against HS3/4A 6a
T7 construct: HCV NS3-NS4A protease, which was produced according to the method of Taremi et al; made in house
Procedure: as §1

[8] = test system: HCV genotype 1a H77 strain subgenomic luciferase replicon (H1a-luc) in Huh-7 cells; experiment: HCV luciferase replicon assay, genotype 1a (H1a-luc); type: cell-based; settings: for FS (1a/1b): EC50 against genotype 1a HCV divided by EC50 against genotype 1b, replicon luciferase assay; for pEC50: Hepatitis C virus, read-out: EC50 Against Relpicon 1a
Procedure: (§2) General procedure: The HCV luciferase replicon assay measures the ability of a test compound to inhibit HCV replication in cell culture after 3 days of treatment in a human hepatoma cell line (Huh-7) bearing a HCV replicon containing a luciferase-neomycin phosphotransferase fusion gene. The inhibition of HCV replication was measured by quantification of luciferase protein expression. Briefly, Huh-7 cells containing either the HCV genotype 1a H77 strain or genotype 1b Con1 strain subgenomic luciferase replicon (H1a-luc or Zluc, respectively) were grown in DMEM containing glucose, L-glutamine and sodium pyruvate, 10% fetal bovine serum (FBS), 100 IU/mL penicillin, 100 μg/mL streptomycin, 2 mM GlutaMAX, non-essential amino acids and 0.25 (H1a-luc) or 0.5 (Zluc) mg/mL G418. GlutaMAX was obtained from Invitrogen, Corp.; all other media reagents were obtained from Mediatech, Inc. For dose-response testing, the cells were seeded in 96-well plates at 1×10^4 (H1a-luc) or 7.5×10^3 (Zluc) cells/well in a volume of 50 μL and incubated at 37° C./5% CO2. Three hours after plating, 50 μL of ten 5-fold serial dilutions of compound were added, and cell cultures were incubated at 37° C./5% CO2 for 72 hours. In all cases, Huh-7 cells lacking the HCV replicon served as negative control. To assess luciferase expression, the media/compound was removed from the plates and ONE-glo Luciferase assay reagent (Promega) was added to each well. The assay plates were shaken for 3 minutes at room temperature and luciferase activity for each well was measured with a 1 sec read time on the Victor^3V multilabel counter using a 700 nm cut-off filter (Perkin Elmer). EC50 values were calculated from dose response curves from the resulting best-fit equations determined by Microsoft Excel and XLfit 4.1 software.

[9] = test system: HCV genotype 1b Con1 strain subgenomic luciferase replicon (Zluc) in Huh-7 cells; experiment: HCV luciferase replicon assay, genotype 1b (Zluc); type: cell-based; settings: Hepatitis C virus, read-out: EC50 Against Relpicon 1b
Procedure: as §2

[10] = Cytotoxicity evaluation, Cell Titer 96 AQueous One Solution; type: cell-based, human; settings: human; Zluc cells, cellular viability
Procedure: For cytotoxicity evaluation, Zluc cells were treated with compounds as described above and cellular viability was monitored using the Cell Titer 96 AQueous One Solution Cell Proliferation Assay (Promega). Plates were then read at 490 nm in a Victor^3V 1420 multilabel counter (Perkin Elmer) and CC50 concentrations were determined using Microsoft Excel and XLfit 4.1 software.

[11] = test system: genotype 1b HCV replicon in Zluc cells; experiment: Genotype 1b HCV replicon luciferase assay with 10% FCS or 45% human serum; type: cell-based; settings: EC50 in presence of 45% HS divided by EC50 in presence of 10% FCS
Procedure: as §2
In Table 1, the values of FS with 45% HS were determined using the genotype 1b HCV replicon luciferase screening assay using Zluc cells, except that activity in the presence of 10% fetal calf serum (FCS) or 45% human serum (HS) was determined in parallel. The fold shift (FS) with 45% HS is the EC50 value in the presence of 45% HS divided by the EC50 value in the presence of 10% FCS. FS (1a/1b) is the EC50 value against genotype 1a HCV divided by the EC50 value against the genotype 1b in the replicon luciferase screening assay.

[12] = genotype 1a H77 replicon, Huh-7 (H1a-luc), 72 hours
[13] = genotype 1b Con1 replicon, Huh-7 (Zluc), 72 hours

T3 sequence (Q99IB8 1662-1715): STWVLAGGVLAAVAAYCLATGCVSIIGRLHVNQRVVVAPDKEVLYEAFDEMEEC
T3 sequence (Q99IB8 1031-1212): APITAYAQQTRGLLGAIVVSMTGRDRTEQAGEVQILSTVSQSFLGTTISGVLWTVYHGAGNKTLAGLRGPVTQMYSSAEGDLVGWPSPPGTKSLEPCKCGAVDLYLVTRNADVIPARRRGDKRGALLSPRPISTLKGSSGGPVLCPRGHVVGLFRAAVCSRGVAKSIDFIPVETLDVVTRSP
T7 sequence (O39927 1031-1212): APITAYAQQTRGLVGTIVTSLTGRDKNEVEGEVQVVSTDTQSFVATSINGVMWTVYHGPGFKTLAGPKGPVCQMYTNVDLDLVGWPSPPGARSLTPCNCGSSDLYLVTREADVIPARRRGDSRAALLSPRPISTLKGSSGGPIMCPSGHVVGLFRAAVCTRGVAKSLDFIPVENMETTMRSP
T7 sequence (O39927 1662-1715): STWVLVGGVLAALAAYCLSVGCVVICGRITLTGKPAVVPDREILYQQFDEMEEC
T6 sequence (O39928 1659-1712): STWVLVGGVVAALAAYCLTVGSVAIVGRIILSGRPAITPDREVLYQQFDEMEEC
T6 sequence (O39928 1028-1209): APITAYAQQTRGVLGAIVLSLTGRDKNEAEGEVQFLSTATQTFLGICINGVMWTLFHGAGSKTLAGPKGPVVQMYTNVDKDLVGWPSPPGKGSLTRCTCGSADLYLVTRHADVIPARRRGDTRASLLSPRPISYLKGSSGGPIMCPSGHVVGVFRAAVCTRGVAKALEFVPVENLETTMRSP
T1 sequence (P27958 1027-1208): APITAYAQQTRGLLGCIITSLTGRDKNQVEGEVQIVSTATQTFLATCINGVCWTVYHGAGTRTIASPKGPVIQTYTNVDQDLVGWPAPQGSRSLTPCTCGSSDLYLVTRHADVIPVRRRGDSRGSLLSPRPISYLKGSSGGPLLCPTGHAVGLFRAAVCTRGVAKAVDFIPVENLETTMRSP
T1 sequence (P27958 1658-1711): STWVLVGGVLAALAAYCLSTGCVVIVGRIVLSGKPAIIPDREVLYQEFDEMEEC
T2 sequence (Q9WMX2 1658-1711): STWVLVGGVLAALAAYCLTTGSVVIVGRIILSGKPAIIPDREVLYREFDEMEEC
T2 sequence (Q9WMX2 1027-1208): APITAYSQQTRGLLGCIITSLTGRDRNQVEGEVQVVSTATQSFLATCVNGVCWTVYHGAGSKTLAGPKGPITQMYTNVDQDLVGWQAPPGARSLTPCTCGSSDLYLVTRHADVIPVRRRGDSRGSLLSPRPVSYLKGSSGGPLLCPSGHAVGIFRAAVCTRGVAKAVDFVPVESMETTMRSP
T5 sequence (O39929 1658-1711): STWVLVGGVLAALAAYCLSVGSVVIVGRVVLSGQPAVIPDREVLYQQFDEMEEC
T5 sequence (O39929 1027-1208): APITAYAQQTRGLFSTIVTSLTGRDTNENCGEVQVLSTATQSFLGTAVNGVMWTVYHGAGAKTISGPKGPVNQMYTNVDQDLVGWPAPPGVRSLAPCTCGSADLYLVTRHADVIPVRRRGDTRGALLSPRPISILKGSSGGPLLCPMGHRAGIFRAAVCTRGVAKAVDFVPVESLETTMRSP
T4 sequence (Q81258 1664-1717): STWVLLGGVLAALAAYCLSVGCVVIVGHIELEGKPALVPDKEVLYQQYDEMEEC
T4 sequence (Q81258 1033-1214): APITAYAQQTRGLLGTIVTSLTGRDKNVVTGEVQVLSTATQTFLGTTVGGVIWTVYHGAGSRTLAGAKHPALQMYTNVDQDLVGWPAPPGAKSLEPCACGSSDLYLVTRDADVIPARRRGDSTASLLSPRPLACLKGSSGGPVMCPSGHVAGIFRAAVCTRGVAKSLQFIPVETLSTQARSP

Structure (SMILES) | pIC50 [1] | pIC50 [2] | pIC50 [3] | pIC50 [4] | pIC50 [5] | pIC50 [6] | pIC50 [7] | FS (1a/1b) [8] | pEC50 [8, 12] | pEC50 [9, 13] | CC50 [10] | FS with 45% HS [11] | pIC50 ([2]; read-out: IC50 Against HS3/4A 1b, genotype 1b protease, 60 min at 30° C.) | pEC50 ([8]; Huh-7, 72 h) | pEC50 ([9]; Huh-7, 72 h)
C#Cc1csc(-c2cc(O[C@H]3CC[C@H]4C(=O)N(C)CCCC/C=C\[C@@H]5C[C@@]5(C(=O)NS(=O)(=O)C5(C)CC5)NC(=O)[C@@H]4C3)c3ccc(OC)c(C)c3n2)n1 [Compound 17a, (1R,4R,6R,15R,18S)-1-methyl-cyclopropanesulfonic acid {18-[2-(4-ethynyl-thiazol-2-yl)-7-methoxy-8-methyl-quinolin-4-yloxy]-13-methyl-2,14-dioxo-3,13-diaza-tricyclo[13.4.0.0]nonadec-7-ene-4-carbonyl}-amide, reference compound] | > 8.00 | > 8.00 | > 8.00 | 7.00 to 8.00 | > 8.00 | > 8.00 | > 8.00 | 8 | > 8.00 | > 8.00 | > 10000 nM | 29 |  |  | 
COc1ccc2c(O[C@H]3CC[C@H]4C(=O)N(C)CCCC/C=C\[C@@H]5C[C@@]5(C(=O)NS(=O)(=O)C5(C)CC5)NC(=O)[C@@H]4C3)cc(-c3nc(C(F)(F)F)cs3)nc2c1C [Compound 17b, (1R,4R,6R,15R,18S)-1-methyl-cyclopropanesulfonic acid-{18-[7-methoxy-8-methyl-2-(4-trifluoromethyl-thiazol-2-yl)-quinolin-4-yloxy]-13-methyl-2,14-dioxo-3,13-diaza-tricyclo[13.4.0.0]nonadec-7-ene-4-carbonyl}-amide, reference compound] | > 8.00 | > 8.00 | > 8.00 | 6.00 to 7.00 | > 8.00 | > 8.00 | > 8.00 | 6 | > 8.00 | > 8.00 | > 10000 nM | 80 |  |  | 
COc1ccc2c(O[C@H]3CC[C@H]4C(=O)N(C)CCCC/C=C\[C@@H]5C[C@@]5(C(=O)NS(=O)(=O)C5(C)CC5)NC(=O)[C@@H]4C3)cc(-c3nc(C(C)C)cs3)nc2c1C [Compound A101, (1R,4R,6R,15R,18S)-1-methyl-cyclopropanesulfonic acid {18-[2-(4-isopropyl-thiazol-2-yl)-7-methoxy-8-methyl-quinolin-4-yloxy]-13-methyl-2,14-dioxo-3,13-diaza-tricyclo[13.4.0.0]nonadec-7-ene-4-carbonyl}-amide] | > 8.00 | > 8.00 | 7.00 to 8.00 | 6.00 to 7.00 | > 8.00 | 7.00 to 8.00 | > 8.00 | 6 | 7.00 to 8.00 | > 8.00 | > 10000 nM | >40 |  |  | 
Cc1csc(-c2cc(O[C@H]3CC[C@H]4C(=O)N(C)CCCC/C=C\[C@@H]5C[C@@]5(C(=O)NS(=O)(=O)C5(C)CC5)NC(=O)[C@@H]4C3)cc(-c3nc(C(F)(F)F)cs3)n2)n1 [Compound C102, (1R,4R,6R,15R,18S)-1-methyl-cyclopropanesulfonic acid {13-methyl-18-[2-(4-methyl-thiazol-2-yl)-6-(4-trifluoromethyl-thiazol-2-yl)-pyridin-4-yloxy]-2,14-dioxo-3,13-diaza-tricyclo[13.4.0.0]nonadec-7-ene-4-carbonyl}-amide] |  | > 8.00 |  | > 8.00 |  |  |  | 5 | > 8.00 | > 8.00 | > 10000 nM |  |  |  | 
CC(C)c1csc(-c2cc(O[C@H]3CC[C@H]4C(=O)N(C)CCCC/C=C\[C@@H]5C[C@@]5(C(=O)NS(=O)(=O)C5(C)CC5)NC(=O)[C@@H]4C3)nc(-c3nc(C(F)(F)F)cs3)n2)n1 [Compound C103, (1R,4R,6R,15R,18S)-1-methyl-cyclopropanesulfonic acid {18-[6-(4-isopropyl-thiazol-2-yl)-2-(4-trifluoromethyl-thiazol-2-yl)-pyrimidin-4-yloxy]-13-methyl-2,14-dioxo-3,13-diaza-tricyclo[13.4.0.0]nonadec-7-ene-4-carbonyl}-amide] |  | > 8.00 |  | > 8.00 |  |  |  | 6 | > 8.00 | > 8.00 | > 10000 nM |  |  |  | 
CN1CCCC/C=C\[C@@H]2C[C@@]2(C(=O)NS(=O)(=O)C2(C)CC2)NC(=O)[C@@H]2C[C@@H](Oc3cc(-c4nc(C(F)(F)F)cs4)nc(-c4nc(C(F)(F)F)cs4)n3)CC[C@H]2C1=O [Compound C104, (1R,4R,6R,15R,18S)-1-methyl-cyclopropanesulfonic acid {18-[2,6-bis(4-trifluoromethyl-thiazol-2-yl)-pyrimidin-4-yloxy]-13-methyl-2,14-dioxo-3,13-diaza-tricyclo[13.4.0.0]nonadec-7-ene-4-carbonyl}-amide] |  | > 8.00 |  | 7.00 to 8.00 |  |  |  | 5 | > 8.00 | > 8.00 | > 10000 nM |  |  |  | 
CN1CCCC/C=C\[C@@H]2C[C@@]2(C(=O)NS(=O)(=O)C2(C)CC2)NC(=O)[C@@H]2C[C@@H](Oc3nc(-c4cccc(C(F)(F)F)c4)sc3-c3ccccc3)CC[C@H]2C1=O [Compound D101, (1R,4R,6R,15R,18S)-1-methyl-cyclopropanesulfonic acid {13-methyl-2,14-dioxo-18-[5-phenyl-2-(3-trifluoromethyl-phenyl)-thiazol-4-yloxy]-3,13-diaza-tricyclo[13.4.0.0]nonadec-7-ene-4-carbonyl}-amide] |  | 7.00 to 8.00 |  | 7.00 to 8.00 |  |  |  | 147 | 5.00 to 6.00 | 7.00 to 8.00 | > 10000 nM |  |  |  | 
CN1CCCC/C=C\[C@@H]2C[C@@]2(C(=O)NS(=O)(=O)C2(C)CC2)NC(=O)[C@@H]2C[C@@H](Oc3nc(-c4ccc(Cl)cc4)sc3-c3ccccc3)CC[C@H]2C1=O [Compound D104] |  |  |  |  |  |  |  | 188 |  |  | > 10000 nM |  | 7.00 to 8.00 | < 5.00 | 7.00 to 8.00
